Measured values reported in US12616649B2, “Composition containing plant extracts” (LG HOUSEHOLD & HEALTH CARE LTD., priority 2020, dated 2026).

Tests used:
[1] = tested on: B-16 mouse melanoma cells; assay: Effect of reducing total amount of melanin (whitening); type: cell-based; settings: control group
Description: After a sample was added to the culture medium of B-16 mouse melanoma cells, a whitening effect was confirmed by measuring the total amount of melanin at the cellular level (Lotan R., Lotan D. Cancer Res. 40:3345-3350, 1980). Before the experiment, toxicity evaluation was performed on mouse melanoma cells to select a concentration without toxicity, and then whitening evaluation was performed at the concentration.
As a control, arbutin was added to the culture medium at a concentration of 200 ppm. B-16 melanoma cells treated with the sample or arbutin were cultured for 3 days.
Thereafter, the cells were removed from a culture vessel and centrifuged, 1 ml of sodium hydroxide solution (1N concentration) was added to the centrifuged cell pellet, heating was performed at 80° C. for 10 minutes to dissolve melanin, and using a spectrophotometer, absorbance at 400 nm was measured to measure the amount of melanin produced.
The amount of melanin was determined according to absorbance per unit cell number (1×10^6 cells). In addition, based on a non-addition control group, the relative total amount of melanin in the experimental group treated with each sample was calculated as inhibition rate (%), and the results are summarized in the table below.

RAW264.7 cells = assay: NO generation inhibitory effect (GRIESS method, LPS stimulus); type: cell-based, mouse
Description: To check the anti-inflammatory effect and skin trouble alleviation effect of each sample, an experiment was conducted to evaluate inhibition of nitric oxide (NO) formation by the GRIESS method using the RAW264.7 cell line (ATCC number: CRL-2278).
Specifically, RAW264.7 cells, which are macrophages of mice, were subcultured several times, and the cells were seeded at a cell density of 3×10^5 cells per well in a 24-well plate, followed by cell culture for 24 hours. At this time, as a positive control, the cells were treated with L-NG-monomethylarginine (L-NMMA), a NO-production inhibitor, to a final concentration of 5 ppm and cultured for 30 minutes. Then, the cells were treated with lipopolysaccharide (LPS) as a stimulus at a concentration of 1 μg/ml and cultured for 24 hours. 100 μl of the supernatant was transferred to a 96-well plate, 100 μl of a GRIESS solution was added thereto, and then reaction was performed at room temperature for 10 minutes. Then, absorbance at 540 nm was measured, and the NO inhibitory effect of each sample was determined based on the absorbance, and the results are shown in the table below.

[2] = Antioxidant effect, free radical scavenging (DPPH); type: physicochemical; settings: control group
Description: To confirm antioxidant activity, free radical scavenging activity was measured using DPPH. DPPH was purchased from Sigma Co., Ltd. (USA). First, a standard DPPH ethanol solution with a concentration of […] (0.06 mg/ml) was prepared. Then, ethanol was added to each extract and ascorbic acid as a reference material, which is known as an antioxidant, to prepare samples at a concentration of 0.1%, and serial dilution was performed. Then, the sample and the standard DPPH solution were added in the same ratio and stirred, followed by reaction at 37° C. for 30 minutes. Then, absorbance was measured at 517 nm. At this time, addition of ethanol instead of the sample was used as a control. Free radical scavenging ability was measured by calculating IC50, which is half maximal inhibitory concentration, and the results are shown in the following table. IC50 is a general method of expressing free radical scavenging ability as the concentration of ascorbic acid and extract required to remove 50% of free radicals of a non-addition control group.

human dermal fibroblasts = assay: Hyaluronic acid synthesis enhancement (Hyaluronan ELISA); type: cell-based; settings: 10 ppb
Description: Human-derived fibroblasts (human dermal fibroblasts) cultured in a DMEM culture medium containing 10% fetal bovine serum at a cell density of 1×10^5 cells/mL, and 500 μl of the cell culture medium was added to each well of a 24-well plate. After incubation for 18 hours, the samples were diluted with a DMEM culture medium without fetal bovine serum, and each sample was added at the following concentrations. […] After incubation for 24 hours, the cell culture medium was recovered, and the concentration of hyaluronic acid was measured using a Hyaluronan ELISA kit (R&D Systems).

Aspergillus niger = assay: Antibacterial effect, MIC, fungi (serial dilution); type: cell-based
Description: MICs were measured for fermented cultures of Staphylococcus aureus and Aspergillus niger.
The serial dilution method was used for both bacteria, and the MIC of fermentation culture was confirmed by visually comparing the turbidity between wells after the incubation was completed.
The minimum inhibitory concentration of each extract was expressed as % (w/v), and MIC (%) in each table means % (w/v) unless otherwise stated.

P. aeruginosa = assay: MIC of the hexanediol control, bacteria as named in the tables; type: cell-based; settings: control group
[3] = tested on: human-derived fibroblasts; assay: Promotion of type I collagen synthesis (PICP EIA kit); type: cell-based; settings: 10 ppb
Description: Each sample was added to the culture medium of human-derived fibroblasts to confirm the effect of promoting synthesis of type I collagen at the cellular level. Measurement of synthesized collagen was quantified using a Procollagen Type I C-Peptide Enzyme Immuno Assay KIT (PICP ETA kit). To measure the amount of synthesized collagen, each sample was added to a fibroblast culture medium (DMEM culture medium). After cell culture for 48 hours, the culture medium was taken, and the degree of synthesis of type I collagen at each concentration was measured at 450 nm using a spectrophotometer using the PICP ETA kit.
For comparison of the effects, a collagen synthesis level was measured in the same manner for the culture medium of untreated fibroblasts (negative control) and a sample (positive control) to which TGFb was added to a final concentration of 10 ppb. A collagen production increase rate was calculated as the ratio of relative collagen production to the negative control group, and the results are shown in the table below.

OC[C@H]1O[C@@H](Oc2ccc(O)cc2)[C@H](O)[C@@H](O)[C@@H]1O [Aibutin]
Whitening Melanin content (%) ([1]; Arbutin 200 ppm): 35%

OC[C@H]1O[C@@H](Oc2ccc(O)cc2)[C@H](O)[C@@H](O)[C@@H]1O [Arbutin, arbutin]
Whitening Melanin content (%) ([1]; 200 ppm): 35%

CNC(=N)NCCC[C@H](N)C(=O)O [L-NMMA, L-NG-monomethylarginine]
Anti-inflammation Inhibition of NO production (%) (RAW264.7 cells; control group, 5 ppm): 28%
Anti-inflammation Inhibition of NO production (%) (RAW264.7 cells; control group, L-NMMA 5 ppm): L-NMMA (5 ppm) 28%
Anti-inflammation Inhibition of NO production (%) (RAW264.7 cells; positive control, 5 ppm): 28%

O=C1O[C@H]([C@@H](O)CO)C(O)=C1O [Vitamin C, ascorbic acid]
Anti-oxidation IC50 [2]: 7.5 ppm
Anti-oxidation IC50 ([2]; DPPH): 7.5 ppm

EGF: epidermal growth factor, known to promote hyaluronic acid production
Moisturizing HA synthesis (%) (human dermal fibroblasts; control group): 320%
Moisturizing HA synthesis (%) (human dermal fibroblasts; positive control): 320%

Hexanediol
Anti-bacteria MIC (%) Fungi (Aspergillus niger; % (w/v), A. niger, 30° C., 48 hours): Fungi: A. niger 1%
Anti-bacteria MIC (%) Fungi (Aspergillus niger; Fungi): Fungi: A. niger 1%
Anti-bacteria MIC (%) Fungi (Aspergillus niger; Fungi (A. niger)): Fungi: A. niger 1%
Anti-bacteria MIC (%) Fungi (Aspergillus niger; Fungi (A.niger)): Fungi: A.niger 1%
Anti-bacteria MIC (%) Fungi (Aspergillus niger; Fungi (control line: A. niger)): Fungi: A. niger 1%
Anti-bacteria MIC (%) Fungi: A. niger (Aspergillus niger; control group, A. niger): Fungi: A. niger 1%
Anti-bacteria MIC (%) Bacteria: P. aeruginosa (P. aeruginosa): Bacteria: P. aeruginosa 2%
Anti-bacteria MIC (%) Bacteria: P. aeruginosa (P. aeruginosa; P. aeruginosa): Bacteria: P. aeruginosa 2%
Anti-bacteria MIC (%) Bacteria: P. aeruginosa (P. aeruginosa; Bacteria: P. aeruginosa): Bacteria: P. aeruginosa 2%
Anti-bacteria MIC Bacteria: P. aeruginosa (P. aeruginosa; Bacteria: P. aeruginosa): Bacteria: P. aeruginosa 2%

TGFb: positive control for collagen synthesis, 10 ppb
Anti-wrinkle Collagen synthesis (% of control) ([3]; control group): 25%
Anti-wrinkle Collagen synthesis (% of control) ([3]; positive control): 25%
